Measurements from article PMC4188773 (Cell calcium, 2014).
Values after ≈ are worked out from the molar mass of the structure shown. Values joined by “and” are separate entries in the source; they are usually repeats but may differ in a detail not shown here. Equal entries are not always repeated. “Also recorded” adds a separate entry of the source.

How the values were obtained:
[1] = pH7; source not stated; cited from earlier work
[2] = source not stated; cited from earlier work
[3] = target: T1, mouse eugenol OR (mOR-EG) (Mus musculus, UniProt Q920P2); assay: dual read-out assay, mOR-EG/PLC and mOR-EG/AC responses compared; type: cell-based; conditions: for AC-/PLC- mediated Ca2+ response (result in words): both read-outs, up to 1-5 mM; for functional bias between PLC and AC pathways (in words): pair-wise comparison of EC50 values
T1 sequence (Q920P2 1-313): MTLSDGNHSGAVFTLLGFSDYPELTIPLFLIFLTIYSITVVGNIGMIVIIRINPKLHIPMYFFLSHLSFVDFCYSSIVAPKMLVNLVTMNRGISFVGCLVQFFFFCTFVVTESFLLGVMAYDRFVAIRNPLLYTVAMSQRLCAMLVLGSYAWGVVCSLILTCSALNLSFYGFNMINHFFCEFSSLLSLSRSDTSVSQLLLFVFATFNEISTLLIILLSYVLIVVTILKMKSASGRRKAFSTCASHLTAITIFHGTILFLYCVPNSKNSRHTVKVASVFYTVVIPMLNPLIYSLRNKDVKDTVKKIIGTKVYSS

CNGC-camp = assay: stimulation of endogenous purinergic Gαq pathway, CNGC-camp read-out; type: cell-based, rat; conditions: 100μM, saturating
[4] = target: T1, mouse eugenol OR (mOR-EG); assay: mOR-EG/AC Ca2+ imaging: mOR-EG + Gαolf + CNGC-camp in HEK293T cells; type: cell-based; conditions: for decay time 90% to 10%, AC-dependent Ca2+ response / time of peak, AC-dependent Ca2+ response / time to rise 10% to 90%, AC-dependent Ca2+ response: saturating response parameters
[5] = target: T1, mouse eugenol OR (mOR-EG); assay: mOR-EG/PLC Ca2+ imaging: mOR-EG + Gα15 in HEK293T cells; type: cell-based; conditions: for decay time 90% to 10%, PLC-dependent Ca2+ response / time of peak, PLC-dependent Ca2+ response / time to rise 10% to 90%, PLC-dependent Ca2+ response: saturating response parameters
AgOR65+AgOrco = assay: Ca2+ response of HEK293T cells expressing mosquito OR AgOR65+AgOrco; type: cell-based, A. gambiae; conditions: 1μM, 5-s stimulation
[6] = target: T1, mouse eugenol OR (mOR-EG); assay: mOR-EG/PLC Ca2+ response in MMDD1 macula densa cells; type: cell-based; conditions: range and mean
HEK293T cells = assay: control HEK293T cells lacking components of the read-out; type: cell-based; conditions: for Ca2+ response in cells expressing mOR-EG and Gαolf without CNGC-camp: eugenol 0.5-2mM, forskolin 20μM, n>500
[7] = target: T1, mouse eugenol OR (mOR-EG); type: cell-based; conditions: up to 1 mM
adenylate cyclase = assay: forskolin-induced Ca2+ influx in mOR-EG/Gαs
[8] = 100μM, range over cells and mean±SEM
[9] = cumulative concentration-dependence

In the case of `CC(C)c1ccc(O)cc1` [4-isopropylphenol], the solubility [1] is given as 15 mM (≈ 2040 µg/mL), the logP [2] is given as 3 and the “AC-/PLC- mediated Ca2+ response (result in words)” value (“AC-/PLC- mediated Ca2+ response” below) [3] is given as “failed to activate any response; also recorded: no effects”.

With `CC(C)(C)c1ccc(O)cc1` [4-tert-butylphenol] the “AC-/PLC- mediated Ca2+ response” value [3] was “failed to activate any response; also recorded: no effects”.

In the case of `Nc1ncnc2c1ncn2[C@@H]1O[C@H](COP(=O)(O)OP(=O)(O)OP(=O)(O)O)[C@@H](O)[C@H]1O` [ATP], the “activation of CNGC-camp” value (CNGC-camp) is reported as “did not induce appreciable activation of CNGC-camp”.

In the case of `C=CCc1ccc(OC(C)=O)c(OC)c1` [acetyl eugenol], the solubility [1] is given as 1.4 mM (≈ 289 µg/mL), the EC50 [4] is given as 373 ± 49 µM and the “decay time 90% to 10%, AC-dependent Ca2+ response” value [4] is given as 125.5 ± 5.1 s. For the same compound, the “time of peak, AC-dependent Ca2+ response” value [4] was 90.8 ± 3.4 s, the “time to rise 10% to 90%, AC-dependent Ca2+ response” value [4] was 27.6 ± 1.7 s and the logP [2] was 2.7. For the same compound, the “functional bias between PLC and AC pathways (in words)” value [3] was “activated both pathways with similar EC50 values”, the EC50 [5] was 348 µM and the “decay time 90% to 10%, PLC-dependent Ca2+ response” value [5] was 44 ± 1 s. For the same compound, the “time of peak, PLC-dependent Ca2+ response” value [5] was 19.6 ± 0.9 s and the “time to rise 10% to 90%, PLC-dependent Ca2+ response” value [5] was 7.7 ± 0.4 s.

In the case of `CCOc1cc(C=O)ccc1O` [ethyl vanillin], the solubility [1] is given as 11 mM (≈ 1830 µg/mL), the EC50 [4] is given as 2170 ± 131 µM and the “decay time 90% to 10%, AC-dependent Ca2+ response” value [4] is given as 115.7 ± 10.8 s. For the same compound, the “time of peak, AC-dependent Ca2+ response” value [4] was 91.6 ± 5.8 s, the “time to rise 10% to 90%, AC-dependent Ca2+ response” value [4] was 36.9 ± 3.3 s and the logP [2] was 1.7. The “functional bias between PLC and AC pathways (in words)” value [3] was “activated both pathways with similar EC50 values”, the EC50 [5] was 1490 µM and the “decay time 90% to 10%, PLC-dependent Ca2+ response” value [5] was 52.3 ± 4.8 s. The “time of peak, PLC-dependent Ca2+ response” value [5] was 22.6 ± 1.5 s and the “time to rise 10% to 90%, PLC-dependent Ca2+ response” value [5] was 9.5 ± 0.8 s.

In the case of `C=CCc1ccc(O)c(OC)c1` [eugenol], the “response kinetics vs mOR-EG responses” value (AgOR65+AgOrco) is reported as “much faster response”, the “Tpeak, mOR-EG/PLC response” value [6] is reported as 13 ± 0.8 s and the EC50 [4] is reported as 53 ± 11 µM. The “Tdecay, mOR-EG/AC response” value [4, 8] was 102 ± 11 s and 101.9 ± 10.9 s, the “Tpeak, mOR-EG/AC response” value [4, 8] was 76 ± 6 s and 75.9 ± 6.1 s and the “Trise, mOR-EG/AC response” value [4, 8] was 32 ± 3 s and 32.2 ± 3.0 s. The “Ca2+ response on removal of extracellular Ca2+, mOR-EG/Gαs(olf) cells” value ([4]; 1mM) was “completely abolished the response”, the “Tdecay, mOR-EG/AC response” value ([4]; 5mM) was 125.1 ± 4.9 s and the “Tpeak, mOR-EG/AC response” value ([4]; 5mM) was 90.5 ± 2.9 s. For the same compound, the “Trise, mOR-EG/AC response” value ([4]; 5mM) was 38.5 ± 1.5 s, the “Hill coefficient, mOR-EG/AC response” value [4, 9] was 0.97 and the “decay time 90% to 10%, AC-dependent Ca2+ response” value [4] was 128.2 ± 4.9 s. For the same compound, the “time of peak, AC-dependent Ca2+ response” value [4] was 90.5 ± 4.4 s, the “time to rise 10% to 90%, AC-dependent Ca2+ response” value [4] was 39.4 ± 2.2 s and the “Ca2+ response in untransfected cells or cells expressing mOR-EG alone” value (HEK293T cells; 0.5-5mM, n>1000) was “Neither untransfected HEK293T cells nor cells expressing mOR-EG alone were sensitive”. For the same compound, the “Ca2+ response in cells expressing mOR-EG and Gαolf without CNGC-camp” value (HEK293T cells) was “did not generate noticeable Ca^2+ responses”, the “functional bias between PLC and AC pathways (in words)” value [3] was “activated both pathways with similar EC50 values” and the “slow Gαs(olf)-dependent response in dual-response cells” value [7] was “obvious in the signal evoked by eugenol”. The “Tdecay, mOR-EG/PLC response” value ([5]; 25μM) was 35.0 ± 0.8 s, the “Tpeak, mOR-EG/PLC response” value ([5]; 25μM) was 18.6 ± 0.8 s and the “Trise, mOR-EG/PLC response” value ([5]; 25μM) was 10.8 ± 0.9 s. For the same compound, the “Tdecay, mOR-EG/PLC response” value [5, 8] was 49.4 ± 1.8 s, the “Tpeak, mOR-EG/PLC response” value [5, 8] was 31.5 ± 0.7 s and the “Trise, mOR-EG/PLC response” value [5, 8] was 8.4 ± 0.3 s. For the same compound, the “Tpeak, mOR-EG/PLC response” value ([5]; 1mM) was 15.4 ± 0.4 s, the “Ca2+ response on removal of extracellular Ca2+, mOR-EG/Gα15 cells” value ([5]; 1mM, 5-s pulse) was “otherwise not affecting the Ca^2+ response” and the “Tdecay, mOR-EG/PLC response” value ([5]; 5mM) was 57.9 ± 3.8 s. For the same compound, the “Trise, mOR-EG/PLC response” value ([5]; 5mM) was 5.6 ± 0.3 s, the “Hill coefficient, mOR-EG/PLC response” value [5, 9] was 1.2 and the “decay time 90% to 10%, PLC-dependent Ca2+ response” value [5] was 52.6 ± 1.1 s. The “time of peak, PLC-dependent Ca2+ response” value [5] was 15.4 ± 0.4 s and the “time to rise 10% to 90%, PLC-dependent Ca2+ response” value [5] was 7.6 ± 0.2 s.

In the case of `C=C[C@@]1(C)CC(=O)[C@]2(O)[C@@]3(C)[C@@H](O)CCC(C)(C)[C@@H]3[C@H](O)[C@H](OC(C)=O)[C@@]2(C)O1` [forskolin], the “Trise of Ca2+ influx on re-addition of 2 mM Ca2+” value (adenylate cyclase; 10μM forskolin applied in 0-Ca2+, Ca2+ added 60 s after stimulation (Fig.3F)) is reported as 24.3 ± 3.1 s, the “effect on Ca2+ concentration” value (adenylate cyclase; 10 μM, 5 sec pulse, mOR-EG/Gαs(olf) cells) is reported as “increased the Ca^2+ concentration” and the “Trise of response to forskolin” value (adenylate cyclase; 10μM, extracellular Ca2+ present (Fig.3E)) is reported as 76.7 ± 5.7 s. The “Ca2+ response in cells expressing mOR-EG and Gαolf without CNGC-camp” value (HEK293T cells) was “did not generate noticeable Ca^2+ responses”.

In the case of `C/C=C/c1ccc2c(c1)OCO2` [isosafrole], the solubility [1] is given as 0.6 mM (≈ 97.3 µg/mL), the logP [2] is given as 3.9 and the “AC-/PLC- mediated Ca2+ response” value [3] is given as “failed to activate any response; also recorded: non agonist, antagonist (*)”.
